The values below come from ChEMBL document CHEMBL1130329, “Coumarin-based inhibitors of HIV integrase” (J Med Chem, 1997).

What is called IC50 is the concentration that inhibits the measured activity by half. High values mean lower potency, low ones higher potency.

Data set [1] concerns the target T1, Human immunodeficiency virus type 1 integrase (Human immunodeficiency virus 1, UniProt Q7ZJM1). Kind of data set: (§1) Inhibitory activity against 3'-processing of DNA by HIV-1 integrase. It counts as functional.
For data set [2], the target named is T1, Human immunodeficiency virus type 1 integrase. The data set is described as follows: Integration of DNA by HIV -1 integrase.
A short description of data set [3]: Delta Logarithm of Partition Coefficient value was determined. Particulars: octanol/water.
In data set [4] the target is T1, Human immunodeficiency virus type 1 integrase. Described as §1.
Data set [5] shares this target. Kind of data set: Inhibitory activity against 3'-processing of DNA byHIV-1 integrase. It counts as functional.

Several values for one entry are separate records, joined by “and”; a condition that tells them apart may be missing. Equal entries are not always repeated.

T1 sequence (Q7ZJM1 whole entry): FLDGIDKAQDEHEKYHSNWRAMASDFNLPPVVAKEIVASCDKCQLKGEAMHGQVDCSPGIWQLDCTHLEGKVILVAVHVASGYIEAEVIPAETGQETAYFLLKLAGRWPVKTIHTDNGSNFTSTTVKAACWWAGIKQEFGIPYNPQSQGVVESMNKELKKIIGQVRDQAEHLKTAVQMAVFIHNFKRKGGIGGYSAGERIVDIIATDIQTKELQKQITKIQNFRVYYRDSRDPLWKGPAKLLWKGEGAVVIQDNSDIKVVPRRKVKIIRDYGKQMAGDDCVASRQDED

Consider `O=c1c(C(c2ccc(O)cc2)c2c(O)oc3ccccc3c2=O)c(O)oc2ccccc12`, for which the IC50 in data set [1] is 141 µM and 128 µM and 130 µM; in data set [2], 75 µM and 74 µM. Also, the “delta Log P” value in data set [3] is reported as 1.1.
In the case of `O=c1c(C(c2ccc(/C=C/c3ccccc3)cc2)c2c(O)oc3ccccc3c2=O)c(O)oc2ccccc12`, the IC50 in data set [1] is 5.5 µM and 9.2 µM and 7 µM; in data set [2] it was 3.7 µM and 9.5 µM. In data set [3], the “delta Log P” value is 4.14.
`O=c1c(C(c2ccc(C(c3c(O)oc4ccccc4c3=O)c3c(O)oc4ccccc4c3=O)cc2)c2c(O)oc3ccccc3c2=O)c(O)oc2ccccc12` came in with an IC50 in data set [1] of 2 µM. Moreover, the “delta Log P” value in data set [3] is given as 2.84.
Turning to `O=c1c(C(c2ccc3ccccc3c2)c2c(O)oc3cc(O)ccc3c2=O)c(O)oc2cc(O)ccc12`, the IC50 in data set [1] came to 4.2 µM; in data set [2], 3.55 µM.
With `O=c1c(C(c2ccco2)c2c(O)oc3ccccc3c2=O)c(O)oc2ccccc12`, the half-inhibitory concentration (IC50) in data set [1] is 75 µM and 34 µM and 54 µM; in data set [2], 133 µM and 122 µM. Besides, the “delta Log P” value in data set [3] was 0.45.
Turning to `O=c1c(C(c2ccccc2)c2c(O)oc3cc(O)ccc3c2=O)c(O)oc2cc(O)ccc12`, the IC50 came to 17.2 µM in data set [1] and 22.2 µM in data set [2].
As to `O=c1c(C(c2ccc3c(c2)Cc2ccccc2-3)c2c(O)oc3ccccc3c2=O)c(O)oc2ccccc12`, the IC50 was 10 µM (2×) and 11 µM in data set [1]; 9.5 µM and 7.8 µM in data set [2]. Further, the “delta Log P” value in data set [3] amounted to 3.4.
`O=c1c(C(c2cccnc2)c2c(O)oc3cc(O)ccc3c2=O)c(O)oc2cc(O)ccc12`: the IC50 is 62 µM and 116 µM in data set [1]; 25 µM and 97 µM in data set [2]; 89 µM in data set [4].
`CN(C)c1ccc(C(c2c(O)oc3ccccc3c2=O)c2c(O)oc3ccccc3c2=O)cc1`: the IC50 in data set [1] is 100 µM and 190 µM; in data set [2], 50 µM and 88 µM; in data set [5], 88 µM. Further, the “delta Log P” value in data set [3] came to 1.88.
On to `O=c1c(Cc2c(O)oc3cc(O)ccc3c2=O)c(O)oc2cc(O)ccc12`, for which the IC50 was determined as 46.3 µM in data set [1] and 44.9 µM in data set [2].
With `O=c1c(C(c2ccccc2)c2c(O)oc3ccccc3c2=O)c(O)oc2ccccc12`, the IC50 was 43.4 µM and 43 µM in data set [1]; 38.8 µM in data set [2]. Also, in data set [3], the “delta Log P” value is reported as 1.6.
`O=c1c(C(c2ccc(/C=C/c3ccccc3)cc2)c2c(O)oc3cc(O)ccc3c2=O)c(O)oc2cc(O)ccc12` gave an IC50 in data set [2] of 1.8 µM.
Regarding `O=c1c(C(c2cccc(C(c3c(O)oc4ccccc4c3=O)c3c(O)oc4ccccc4c3=O)c2)c2c(O)oc3ccccc3c2=O)c(O)oc2ccccc12`, the IC50 in data set [1] is 3 µM and 2.9 µM; in data set [2], 1.2 µM and 2 µM.
On to `O=c1c(C(c2ccc3ccccc3c2)c2c(O)oc3ccccc3c2=O)c(O)oc2ccccc12`, for which the IC50 was 19 µM and 20 µM (2×) in data set [1]; 16 µM and 9 µM in data set [2]. For the same compound, in data set [3], the “delta Log P” value amounted to 2.6.
With `O=c1c(C(c2ccc(C(c3c(O)oc4cc(O)ccc4c3=O)c3c(O)oc4cc(O)ccc4c3=O)cc2)c2c(O)oc3cc(O)ccc3c2=O)c(O)oc2cc(O)ccc12`, the IC50 came out at 0.37 µM in data set [1] and 0.33 µM in data set [2].
As for `O=c1cc(O)c2ccc(O)cc2o1`, the IC50 was 300 µM in data set [1] and 325 µM in data set [2].
Take `O=c1oc2ccccc2c(O)c1C1c2ccccc2Oc2c1c(=O)oc1ccccc21` (centres undefined): the IC50 in data set [1] is 121 µM and 127 µM; in data set [2], 122 µM and 163 µM.
In the case of `COc1cc(C(c2c(O)c3ccccc3oc2=O)c2c(O)c3ccccc3oc2=O)ccc1O`, the concentration for half-maximal inhibition (IC50) in data set [1] was 198 µM and 177 µM and 190 µM; in data set [2] it was 76 µM and 108 µM. Further, in data set [3], the “delta Log P” value turned out to be 1.05.
For the compound `O=c1c(Cc2ccccc2Cc2c(O)oc3ccccc3c2=O)c(O)oc2ccccc12`, the IC50 in data set [1] was 46 µM and 45 µM; in data set [2], 20.5 µM and 33.2 µM.
For the compound `O=c1c(C(c2ccc(-c3ccccc3)cc2)c2c(O)oc3ccccc3c2=O)c(O)oc2ccccc12`, the IC50 is 14 µM and 16 µM and 15 µM in data set [1]; 13 µM and 28 µM in data set [2]. Moreover, in data set [3], the “delta Log P” value is on record as 3.33.
`O=c1c(C(c2cnc3ccccc3c2)c2c(O)oc3ccccc3c2=O)c(O)oc2ccccc12`: the IC50 was 40 µM and 29 µM and 35 µM in data set [1]; 23 µM and 14 µM in data set [2]. Further, in data set [3], the “delta Log P” value worked out at 1.6.
Turning to `O=c1c(C(c2ccc(OCc3ccccc3)cc2)c2c(O)oc3ccccc3c2=O)c(O)oc2ccccc12`, the 50% inhibitory concentration (IC50) was 19 µM and 8.5 µM and 20 µM in data set [1]; 14 µM and 24 µM in data set [2]. Moreover, in data set [3], the “delta Log P” value was determined as 3.06.
For the compound `O=c1c(C(c2ccc([N+](=O)[O-])cc2)c2c(O)oc3ccccc3c2=O)c(O)oc2ccccc12`, the IC50 was 58 µM and 54 µM in data set [1]; 12 µM and 24 µM in data set [2]; 50 µM in data set [5]. Besides, the “delta Log P” value in data set [3] amounted to 1.37.
As for `O=c1c(C(c2cccs2)c2c(O)oc3ccccc3c2=O)c(O)oc2ccccc12`, the IC50 is 100 µM and 105 µM in data set [1]; 148 µM and 149 µM in data set [2]; 110 µM in data set [5]. Moreover, in data set [3], the “delta Log P” value is on record as 0.86.
On to `O=C(O)c1ccc(C(c2c(O)oc3ccccc3c2=O)c2c(O)oc3ccccc3c2=O)cc1`, for which the IC50 in data set [1] is 66 µM and 48 µM; in data set [2], 54 µM and 49 µM.
Consider `O=c1oc2ccccc2c(O)c1C1c2c(c3ccccc3oc2=O)Oc2c1c(=O)oc1ccccc21`, for which the IC50 in data set [1] was 35.7 µM; in data set [2], 22.5 µM.
In the case of `O=c1c(Cc2ccc(Cc3c(O)oc4ccccc4c3=O)cc2)c(O)oc2ccccc12`, the IC50 came to 80.6 µM in data set [1] and 69.2 µM in data set [2].
Turning to `O=c1c(Cc2cccc(Cc3c(O)oc4ccccc4c3=O)c2)c(O)oc2ccccc12`, the IC50 is 34 µM and 40 µM in data set [1]; 11.1 µM and 27.5 µM in data set [2].
On to `O=c1c(C(c2ccccn2)c2c(O)oc3cc(O)ccc3c2=O)c(O)oc2cc(O)ccc12`, for which the IC50 is 94 µM and 84 µM in data set [1]; 49 µM and 70 µM in data set [2]; 81 µM in data set [4].
Turning to `O=c1c(C(c2cc(OCc3ccccc3)cc(OCc3ccccc3)c2)c2c(O)oc3ccccc3c2=O)c(O)oc2ccccc12`, the IC50 in data set [1] was 8 µM and 11 µM and 10 µM; in data set [2], 12 µM and 3.7 µM. For the same compound, the “delta Log P” value in data set [3] turned out to be 5.15.
For “3,3'-(Ferrocenomethylene)bis[4-hydroxycoumarin]”, the IC50 is 11 µM and 3.6 µM in data set [1]; 7 µM and 5 µM in data set [2].
On to `O=c1cc(O)c2ccccc2o1` [4-HYDROXYCOUMARINS], for which the IC50 in data set [1] and in data set [2] was more than 100 µM throughout.
Regarding `O=c1oc2ccccc2c(O)c1Cc1c(O)c2ccccc2oc1=O` [DICUMAROL], the figures for the IC50 in data set [1] and in data set [2] were more than 300 µM and more than 100 µM, respectively.
